Assay results as given in patent US8916577B2, “Tricyclic derivatives, process for their preparation and their use as kinase inhibitors” (Nerviano Medical Sciences S.R.L., priority 2011, dated 2014).
Structures can show the parent of a compound that is named as a salt.

Molecular target: MPS1 (Homo sapiens (Human), UniProt P33981)
Test: Biochemical assay for inhibitors of MPS1 kinase activity (33P-ATP trans-phosphorylation, Dowex)
Conditions: 5 nM MPS1, 15 microM ATP, P38-β-tide 200 microM
Excerpt: Cloning, Expression and Purification of Recombinant MPS1 Full Length Protein.
MPS1 full length (corresponding to residues 2-857 of the full length sequence, see Swiss-Prot accession number P33981) was PCR amplified from the full-length human MPS1 gene present in house as clone pGEX4t_MPS1.
Baculoviruses were generated by cotransfecting Sf9 insect cells with the expression vector and the viral DNA using the BaculoGold® transfection kit (Pharmingen). Viral supernatant was recovered after 5 days and subjected to 3 rounds of amplification to increase viral titer. Recombinant protein was produced by infecting High5 insect cells. After 72 hours of infection at 21° C., cells were recovered, pelletted and freezed at −80° C. For purification of recombinant protein, pellet was thawed, resuspended in lysis buffer (PBS, NaCl 150 mM, Glycerol 10%, CHAPS 0.1%, DTT 20 mM, protease and phosphatase inhibitors) and lysed by Gaulin. Lysate was cleared by centrifugation and loaded on a GST affinity column. After extensive wash, recombinant protein was cleaved by a specific protease and eluted by incubation.
To get a fully activated enzyme, the protein was then subjected to auto-phosphorylation in presence of ATP 1 mM at 25° C. for 2 hours in kinase buffer (Hepes pH7.5 50 mM, MgCl2 2.5 mM, MnCl2 1 mM, DTT 1 mM, phosphatase inhibitors); ATP was then removed whit a desalting column.
Biochemical Assay for Inhibitors of MPS1 Kinase Activity
The inhibitory activity of putative kinase inhibitors and the potency of selected compounds were determined using a trans-phosphorylation assay.
Specific peptide or protein substrates are trans-phosphorylated by their specific ser-thr or tyr kinase in the presence of ATP traced with ^33P-γ-ATP, and in the presence of their own optimal buffer and cofactors.
At the end of the phosphorylation reaction, more than 98% unlabeled ATP and radioactive ATP is captured by an excess of the ion exchange dowex resin; the resin then settles down to the bottom of the reaction plate by gravity.
Supernatant is subsequently withdrawn and transferred into a counting plate, then evaluated by P-counting.
The buffer for MPS1 assay was composed of HEPES 50 mM, at pH 7.5, with 2.5 mM MgCl2, 1 mM MnCl2, 1 mM DTT, 3 microM Na3VO4, 2 mM P-glycerophosphate and 0.2 mg/mL BSA.
The assay was run with a final concentration MPS1 of 5 nM, in the presence of 15 microM ATP and 1.5 nM ^33P-γ-ATP; the substrate was P38-β-tide, used at 200 microM.
The test mix consisted of:
1) 3× Enzyme mix (done in Kinase Buffer 3×), 5 microL/well
2) 3× substrate and ATP mix (done in ddH2O), together with ^33P-γ-ATP, 5 microL/well
3) 3× test compounds (diluted into ddH2O—3% DMSO)—5 microL/well
a) for percent inhibition studies (HTS), individual dilution plates at 1 mM are diluted at a 3× concentration (30 microM) in ddH2O (3% DMSO=final concentration) using a Beckman NX automated pipetting platform. The same instrument is used for distributing the diluted mother plates into the test plates. b) for IC50 determination (KSS platform), 100 μl of each compound at 1 mM in 100% DMSO are transferred from the original plate into the first column of another 96 well plate (A1 to G1); well H1 is left empty for the internal standard inhibitor, usually staurosporine.
An automated station for serial dilutions (Biomek FX, Beckman) is used for producing 1:3 dilutions in 100% DMSO, from line A1 to A10, and for all the seven compounds in the column. Moreover, 4-5 copies of daughter plates are prepared by reformatting 5 microL of this first set of 100% DMSO dilution plates into 384 deep well-plates: one copy of the daughter plates with the serial dilutions of test compounds will be thaw the day of the experiments, reconstituted at a 3× concentration with water and used in the IC50 determination assays. In a standard experiment, the highest concentration (3×) of all compounds is 30 microM, while the lowest one is 1.5 nM. […]

Sequence of MPS1 (P33981 2-857): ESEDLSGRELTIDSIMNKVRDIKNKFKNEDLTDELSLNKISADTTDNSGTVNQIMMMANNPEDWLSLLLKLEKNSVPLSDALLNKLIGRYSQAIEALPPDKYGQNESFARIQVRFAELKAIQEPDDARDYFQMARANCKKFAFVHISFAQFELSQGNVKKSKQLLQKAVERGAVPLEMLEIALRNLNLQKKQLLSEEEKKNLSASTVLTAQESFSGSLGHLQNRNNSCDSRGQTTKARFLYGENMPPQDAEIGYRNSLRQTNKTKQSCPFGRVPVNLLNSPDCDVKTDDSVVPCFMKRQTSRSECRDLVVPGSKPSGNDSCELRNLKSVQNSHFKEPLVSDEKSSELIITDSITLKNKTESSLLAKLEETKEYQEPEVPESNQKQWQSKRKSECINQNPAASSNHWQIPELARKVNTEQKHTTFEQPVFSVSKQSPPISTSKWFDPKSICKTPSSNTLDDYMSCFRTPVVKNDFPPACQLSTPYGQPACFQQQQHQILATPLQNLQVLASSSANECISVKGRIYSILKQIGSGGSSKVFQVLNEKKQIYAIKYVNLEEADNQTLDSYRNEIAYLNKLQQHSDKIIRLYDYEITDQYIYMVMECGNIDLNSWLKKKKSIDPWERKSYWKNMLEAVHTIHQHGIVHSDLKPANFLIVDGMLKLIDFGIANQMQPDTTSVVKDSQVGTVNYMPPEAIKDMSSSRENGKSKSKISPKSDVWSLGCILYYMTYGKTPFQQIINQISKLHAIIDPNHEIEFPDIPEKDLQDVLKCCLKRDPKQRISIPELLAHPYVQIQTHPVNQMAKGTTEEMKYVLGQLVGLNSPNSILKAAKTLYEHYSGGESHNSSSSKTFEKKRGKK

| SMILES | IC50 |
| --- | --- |
| COc1cc(Br)ccc1Nc1ncc2c(n1)-c1c(c(C(N)=O)nn1C)CCC2 [Compound 1, 9-[(4-bromo-2-methoxyphenyl)amino]-1-methyl-1,4,5,6-tetrahydropyrazolo[4′,3′:6,7]cyclohepta[1,2-d]pyrimidine-3-carboxamide] | 421 nM |
| CCc1cccc(CC)c1NC(=O)c1nn(C)c2c1CCCc1cnc(Nc3ccc(N4CCN(C)CC4)cc3OC)nc1-2 [Compound 4, N-(2,6-diethylphenyl)-9-{[2-methoxy-4-(4-methylpiperazin-1-yl)phenyl]amino}-1-methyl-1,4,5,6-tetrahydropyrazolo[4′,3′:6,7]cyclohepta[1,2-d]pyrimidine-3-carboxamide] | 184 nM |
| COc1cc(N2CCN(C)CC2)ccc1Nc1ncc2c(n1)-c1c(c(C(=O)Nc3ccccc3)nn1C)CCC2 [Compound 8, 9-{[2-methoxy-4-(4-methylpiperazin-1-yl)phenyl]amino}-1-methyl-N-phenyl-1,4,5,6-tetrahydropyrazolo[4′,3′:6,7]cyclohepta[1,2-d]pyrimidine-3-carboxamide] | 353 nM |
| CCc1cccc(C)c1NC(=O)c1nn(C)c2c1CCCc1cnc(Nc3ccc(N4CCN(C)CC4)cc3OC)nc1-2 [Compound 27, N-(2-ethyl-6-methylphenyl)-9-{[2-methoxy-4-(4-methylpiperazin-1-yl)phenyl]amino}-1-methyl-1,4,5,6-tetrahydropyrazolo[4′,3′:6,7]cyclohepta[1,2-d]pyrimidine-3-carboxamide] | 189 nM |
| COc1cc(N2CCN(C)CC2)ccc1Nc1ncc2c(n1)-c1c(c(C(=O)NC3CCCCC3)nn1C)CCC2 [Compound 28, N-cyclohexyl-9-{[2-methoxy-4-(4-methylpiperazin-1-yl)phenyl]amino}-1-methyl-1,4,5,6-tetrahydropyrazolo[4′,3′:6,7]cyclohepta[1,2-d]pyrimidine-3-carboxamide] | 249 nM |
| CNC(=O)c1nn(C)c2c1CCCc1cnc(Nc3ccc(Br)cc3OC)nc1-2 [Compound 32, 9-[(4-bromo-2-methoxyphenyl)amino]-N,1-dimethyl-1,4,5,6-tetrahydropyrazolo[4′,3′:6,7]cyclohepta[1,2-d]pyrimidine-3-carboxamide] | 277 nM |
| CCc1cccc(CC)c1NC(=O)c1nn(C)c2c1CCCc1cnc(Nc3ccc(C(=O)NC4CCN(C)CC4)cc3OC)nc1-2 [Compound 35, N-(2,6-diethylphenyl)-9-({2-methoxy-4-[(1-methylpiperidin-4-yl)carbamoyl]phenyl}amino)-1-methyl-1,4,5,6-tetrahydropyrazolo[4′,3′:6,7]cyclohepta[1,2-d]pyrimidine-3-carboxamide] | 66 nM |
| CCc1cccc(CC)c1NC(=O)c1nn(C)c2c1CCCc1cnc(Nc3ccc(C(=O)N4CCCN(C)CC4)cc3OC(F)(F)F)nc1-2 [Compound 43, N-(2,6-diethylphenyl)-1-methyl-9-({4-[(4-methyl-1,4-diazepan-1-yl)carbonyl]-2-(trifluoromethoxy)phenyl}amino)-1,4,5,6-tetrahydropyrazolo[4′,3′:6,7]cyclohepta[1,2-d]pyrimidine-3-carboxamide] | 199 nM |
| CCc1cccc(CC)c1NC(=O)c1nn(CC(F)(F)F)c2c1CCCc1cnc(Nc3ccc(N4CCN(C)CC4)cc3OC)nc1-2 [Compound 56, N-(2,6-diethylphenyl)-9-{[2-methoxy-4-(4-methylpiperazin-1-yl)phenyl]amino}-1-(2,2,2-trifluoroethyl)-1,4,5,6-tetrahydropyrazolo[4′,3′:6,7]cyclohepta[1,2-d]pyrimidine-3-carboxamide] | 862 nM |
| CCc1cccc(CC)c1NC(=O)c1nn(CCO)c2c1CCCc1cnc(Nc3ccc(N4CCC(N(C)C)CC4)cc3OC)nc1-2 [Compound 71, N-(2,6-diethylphenyl)-9-({4-[4-(dimethylamino)piperidin-1-yl]-2-methoxyphenyl}amino)-1-(2-hydroxyethyl)-1,4,5,6-tetrahydropyrazolo[4′,3′:6,7]cyclohepta[1,2-d]pyrimidine-3-carboxamide trifluoroacetate] | 174 nM |
| CCc1cccc(CC)c1NC(=O)c1c2c(nn1C)-c1nc(Nc3ccc(N4CCN(C)CC4)cc3OC)ncc1CCC2 [Compound 97, N-(2,6-diethylphenyl)-9-{[2-methoxy-4-(4-methylpiperazin-1-yl)phenyl]amino}-2-methyl-2,4,5,6-tetrahydropyrazolo[4′,3′:6,7]cyclohepta[1,2-d]pyrimidine-3-carboxamide] | 853 nM |
| CCc1cccc(CC)c1NC(=O)c1noc2c1CCCc1cnc(Nc3ccc(N4CCN(C)CC4)cc3OC)nc1-2 [Compound 99, N-(2,6-diethylphenyl)-9-{[2-methoxy-4-(4-methylpiperazin-1-yl)phenyl]amino}-5,6-dihydro-4H-isoxazolo[4′,5′:6,7]cyclohepta[1,2-d]pyrimidine-3-carboxamide] | 134 nM |
| CCc1cccc(CC)c1NC(=O)c1onc2c1CCCc1cnc(Nc3ccc(N4CCN(C)CC4)cc3OC)nc1-2 [Compound 101, N-(2,6-diethylphenyl)-9-{[2-methoxy-4-(4-methylpiperazin-1-yl)phenyl]amino}-5,6-dihydro-4H-isoxazolo[4′,3′:6,7]cyclohepta[1,2-d]pyrimidine-3-carboxamide] | 308 nM |
